In patent US12486273B2 (Hoffmann-La Roche Inc., priority 2019, dated 2025):

Key:
[1] = target: human TLR8 (Homo sapiens (Human), UniProt Q9NR97); assay: HEK293-Blue-hTLR-8 cells assay; format: cell-based; settings: HEK293-Blue-hTLR8 cells, R848 stimulation, 20 hrs, SEAP reporter; read-out: HEK/hTLR8 IC50
From the text: HEK293-Blue-hTLR-8 Cells Assay:
(§1) A stable HEK293-Blue-hTLR-8 cell line was purchased from InvivoGen (Cat. #: hkb-htlr8, San Diego, California, USA). These cells were originally designed for studying the stimulation of human TLR8 by monitoring the activation of NF-κB. A SEAP (secreted embryonic alkaline phosphatase) reporter gene was placed under the control of the IFN-β minimal promoter fused to five NF-κB and AP-1-binding sites. The SEAP was induced by activating NF-κB and AP-1 via stimulating HEK-Blue hTLR8 cells with TLR8 ligands. Therefore the reporter expression was declined by TLR8 antagonist under the stimulation of a ligand, such as R848, for incubation of 20 hrs. The cell culture supernatant SEAP reporter activity was determined using QUANTI-Blue™ kit (Cat. #: rep-Qb1, Invivogen, San Diego, Ca, USA) at a wavelength of 640 nm, a detection medium that turns purple or blue in the presence of alkaline phosphatase.
HEK293-Blue-hTLR8 cells were incubated at a density of 250,000-450,000 cells/mL in a volume of 170 μL in a 96-well plate in Dulbecco's Modified Eagle's medium (DMEM) containing 4.5 g/L glucose, 50 U/mL penicillin, […], […], 2 mM L-glutamine, 10% (v/v) heat-inactivated fetal bovine serum with addition of 20 μL test compound in a serial dilution in the presence of final DMSO at 1% and 10 μL of 60 μM R848 in above DMEM, perform incubation under 37° C. in a CO2 incubator for 20 hrs. Then 20 μL of the supernatant from each well was incubated with 180 μL Quanti-blue substrate solution at 37° C. for […] and the absorbance was read at 620˜655 nm using a spectrophotometer. The signaling pathway that TLR8 activation leads to downstream NF-κB activation has been widely accepted, and therefore similar reporter assay was modified for evaluating TLR8 antagonist.

[2] = target: human TLR9 (Homo sapiens (Human), UniProt Q9NR96); assay: HEK293-Blue-hTLR-9 cells assay; format: cell-based; settings: HEK293-Blue-hTLR9 cells, ODN2006 stimulation, 20 hrs, SEAP reporter; read-out: HEK/hTLR9 IC50
human TLR9, sequence (Q9NR96 26-1032): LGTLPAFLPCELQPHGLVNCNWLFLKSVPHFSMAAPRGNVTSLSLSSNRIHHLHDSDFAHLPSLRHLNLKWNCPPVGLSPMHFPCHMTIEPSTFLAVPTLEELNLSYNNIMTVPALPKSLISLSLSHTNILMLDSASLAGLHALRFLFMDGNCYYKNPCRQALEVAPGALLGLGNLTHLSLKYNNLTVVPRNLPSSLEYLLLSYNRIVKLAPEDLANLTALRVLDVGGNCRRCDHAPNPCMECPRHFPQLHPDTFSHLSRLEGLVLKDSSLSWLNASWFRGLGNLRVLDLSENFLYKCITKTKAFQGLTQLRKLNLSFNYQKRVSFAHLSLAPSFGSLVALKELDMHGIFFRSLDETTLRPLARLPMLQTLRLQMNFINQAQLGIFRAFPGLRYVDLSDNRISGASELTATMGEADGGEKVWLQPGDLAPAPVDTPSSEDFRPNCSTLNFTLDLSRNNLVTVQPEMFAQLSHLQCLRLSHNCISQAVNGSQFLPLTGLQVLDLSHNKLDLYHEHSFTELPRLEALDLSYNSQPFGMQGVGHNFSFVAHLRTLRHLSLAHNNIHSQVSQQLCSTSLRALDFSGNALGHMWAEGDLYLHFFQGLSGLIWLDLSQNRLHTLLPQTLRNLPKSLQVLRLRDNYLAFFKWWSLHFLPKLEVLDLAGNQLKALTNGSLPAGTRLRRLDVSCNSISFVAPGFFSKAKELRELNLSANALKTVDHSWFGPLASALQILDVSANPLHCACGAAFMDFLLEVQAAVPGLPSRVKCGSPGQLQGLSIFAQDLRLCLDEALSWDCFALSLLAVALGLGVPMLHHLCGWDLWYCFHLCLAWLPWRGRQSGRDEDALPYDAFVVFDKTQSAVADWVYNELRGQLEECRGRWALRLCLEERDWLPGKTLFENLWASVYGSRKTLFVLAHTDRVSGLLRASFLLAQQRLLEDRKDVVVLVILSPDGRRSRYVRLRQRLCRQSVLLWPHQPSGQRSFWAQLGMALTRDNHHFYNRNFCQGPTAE
From the text: HEK293-Blue-hTLR-9 Cells Assay:
A stable HEK293-Blue-hTLR-9 cell line was purchased from InvivoGen (Cat. #: hkb-htlr9, San Diego, California, USA). These cells were originally designed for studying the stimulation of human TLR9 by monitoring the activation of NF-κB. A SEAP (secreted embryonic alkaline phosphatase) reporter gene was placed under the control of the IFN-β minimal promoter fused to five NF-κB and AP-1-binding sites. The SEAP was induced by activating NF-κB and AP-via stimulating HEK-Blue hTLR9 cells with TLR9 ligands. Therefore the reporter expression was declined by TLR9 antagonist under the stimulation of a ligand, such as ODN2006 (Cat. #: tlrl-2006-1, Invivogen, San Diego, California, USA), for incubation of 20 hrs. The cell culture supernatant SEAP reporter activity was determined using QUANTI-Blue™ kit (Cat. #: rep-qb1, Invivogen, San Diego, California, USA) at a wavelength of 640 nm, a detection medium that turns purple or blue in the presence of alkaline phosphatase.
(§2) HEK293-Blue-hTLR9 cells were incubated at a density of 250,000˜450,000 cells/mL in a volume of 170 μL in a 96-well plate in Dulbecco's Modified Eagle's medium (DMEM) containing 4.5 g/L glucose, 50 U/mL penicillin, […], […], 2 mM L-glutamine, 10% (v/v) heat-inactivated fetal bovine serum with addition of 20 μL test compound in a serial dilution in the presence of final DMSO at 1% and 10 μL of 20 μM ODN2006 in above DMEM, perform incubation under 37° C. in a CO2 incubator for 20 hrs. Then 20 μL of the supernatant from each well was incubated with 180 μL Quanti-blue substrate solution at 37° C. for 2 h and the absorbance was read at 620-655 nm using a spectrophotometer. The signaling pathway that TLR9 activation leads to downstream NF-κB activation has been widely accepted, and therefore similar reporter assay was modified for evaluating TLR9 antagonist.

[3] = Human microsomal stability assay; format: in vitro ADME; settings: human liver microsomes, 1 μM test compound, 37° C., pH 7.4
Experimental: Human Microsomal Stability Assay
Human liver microsomes (Cat. NO.: 452117, Corning, USA) were preincubated with test compound for 10 minutes at 37° C. in 100 mM potassium phosphate buffer, pH 7.4. The reactions were initiated by adding NADPH regenerating system. The final incubation mixtures contained 1 μM test compound, 0.5 mg/mL liver microsomal protein, 1 mM MgCl2, 1 mM NADP, 1 unit/mL isocitric dehydrogenase and 6 mM isocitric acid in 100 mM potassium phosphate buffer, pH 7.4. After incubation times of 0, 3, 6, 9, 15 and 30 minutes at 37° C., 300 μL of cold ACN (including internal standard) was added to 100 μL incubation mixture to terminate the reaction. Following precipitation and centrifugation, 100 μL supernatant will be taken out and added 300 μL water. The amount of compound remaining in the samples was determined by LC-MS/MS. Controls of no NADPH regenerating system at zero and 30 minutes were also prepared and analyzed. The results were categorized as: low (<7.0 mL/min/kg), medium (7.0-16.2 mL/min/kg) and high (16.2-23.2 mL/min/kg).

[4] = target: human TLR7 (Homo sapiens (Human), UniProt Q9NYK1); assay: HEK293-Blue-hTLR-7 cells assay; format: cell-based; settings: HEK293-Blue-hTLR7 cells, R848 stimulation, 20 hrs, SEAP reporter; read-out: HEK/hTLR7 IC50
human TLR7, sequence (Q9NYK1 27-1049): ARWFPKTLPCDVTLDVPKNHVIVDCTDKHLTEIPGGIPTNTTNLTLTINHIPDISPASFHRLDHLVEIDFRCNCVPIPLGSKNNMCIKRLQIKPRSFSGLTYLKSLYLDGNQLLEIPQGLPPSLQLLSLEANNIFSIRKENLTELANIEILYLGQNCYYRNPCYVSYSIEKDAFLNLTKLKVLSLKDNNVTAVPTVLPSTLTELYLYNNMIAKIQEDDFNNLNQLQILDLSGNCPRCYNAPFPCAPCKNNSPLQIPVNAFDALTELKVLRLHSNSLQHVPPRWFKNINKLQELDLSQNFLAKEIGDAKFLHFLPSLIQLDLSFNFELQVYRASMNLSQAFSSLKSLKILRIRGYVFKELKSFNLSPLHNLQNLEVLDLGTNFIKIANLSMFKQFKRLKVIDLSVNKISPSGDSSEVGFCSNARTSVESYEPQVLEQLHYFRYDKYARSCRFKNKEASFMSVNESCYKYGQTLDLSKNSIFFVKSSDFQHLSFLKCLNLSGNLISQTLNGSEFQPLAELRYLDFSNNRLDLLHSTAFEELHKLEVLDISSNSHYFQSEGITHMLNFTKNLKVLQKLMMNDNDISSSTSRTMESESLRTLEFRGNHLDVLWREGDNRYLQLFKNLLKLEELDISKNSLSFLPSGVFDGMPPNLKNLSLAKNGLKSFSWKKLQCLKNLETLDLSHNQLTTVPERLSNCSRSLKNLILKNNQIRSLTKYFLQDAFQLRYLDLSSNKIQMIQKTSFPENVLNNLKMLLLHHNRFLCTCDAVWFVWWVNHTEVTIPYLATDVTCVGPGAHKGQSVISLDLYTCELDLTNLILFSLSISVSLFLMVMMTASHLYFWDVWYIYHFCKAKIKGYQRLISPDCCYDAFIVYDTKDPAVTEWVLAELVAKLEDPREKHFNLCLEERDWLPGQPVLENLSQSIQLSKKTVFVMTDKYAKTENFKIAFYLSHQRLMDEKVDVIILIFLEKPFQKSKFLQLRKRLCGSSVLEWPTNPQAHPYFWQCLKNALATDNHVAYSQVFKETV
From the text: HEK293-BLUE-hTLR-7 CELLS ASSAY:
as §1, with “HEK293-Blue-hTLR-7” for “HEK293-Blue-hTLR-8”, “hkb-htlr7,” for “hkb-htlr8,”, “TLR7” for “TLR8”, “hTLR7” for “hTLR8”, “R848 (Resiquimod),” for “R848,”, “rep-qb1,” for “rep-Qb1,”
as §2, with “HEK293-Blue-hTLR7 cells” for “HEK293-Blue-hTLR9 cells”, “μM R848” for “μM ODN2006”, “2 hrs” for “2 h”, “that TLR7” for “that TLR9”, “evaluating TLR7” for “evaluating TLR9”

human TLR8, sequence (Q9NR97 27-1041): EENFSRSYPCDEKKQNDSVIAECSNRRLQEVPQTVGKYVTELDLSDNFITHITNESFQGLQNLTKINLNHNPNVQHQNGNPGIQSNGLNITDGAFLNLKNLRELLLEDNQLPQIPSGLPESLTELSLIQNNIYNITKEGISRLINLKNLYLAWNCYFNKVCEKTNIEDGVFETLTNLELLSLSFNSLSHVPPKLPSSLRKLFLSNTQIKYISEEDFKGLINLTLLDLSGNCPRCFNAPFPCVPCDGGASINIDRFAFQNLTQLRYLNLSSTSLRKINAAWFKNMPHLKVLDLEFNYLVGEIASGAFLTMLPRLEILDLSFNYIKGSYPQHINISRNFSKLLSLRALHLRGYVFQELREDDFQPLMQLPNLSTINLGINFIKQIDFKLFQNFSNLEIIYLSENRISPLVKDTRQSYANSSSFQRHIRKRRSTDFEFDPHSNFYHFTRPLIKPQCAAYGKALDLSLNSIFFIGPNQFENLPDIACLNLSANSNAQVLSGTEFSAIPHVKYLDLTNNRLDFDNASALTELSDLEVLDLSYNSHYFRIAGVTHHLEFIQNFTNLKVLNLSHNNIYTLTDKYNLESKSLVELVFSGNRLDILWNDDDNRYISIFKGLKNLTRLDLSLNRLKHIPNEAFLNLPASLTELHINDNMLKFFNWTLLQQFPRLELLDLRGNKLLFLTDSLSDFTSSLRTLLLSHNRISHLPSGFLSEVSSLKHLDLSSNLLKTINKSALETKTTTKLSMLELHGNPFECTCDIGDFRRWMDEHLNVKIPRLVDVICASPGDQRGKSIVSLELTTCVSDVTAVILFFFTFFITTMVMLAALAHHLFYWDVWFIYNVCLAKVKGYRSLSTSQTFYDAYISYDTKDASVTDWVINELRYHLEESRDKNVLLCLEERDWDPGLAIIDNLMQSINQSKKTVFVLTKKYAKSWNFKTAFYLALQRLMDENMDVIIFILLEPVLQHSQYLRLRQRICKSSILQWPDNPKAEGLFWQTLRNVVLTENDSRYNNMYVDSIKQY

Compound: [2H]c1ccc2c(N3C[C@@H]4C[C@H](N5CCc6ncc(N7CCNCC7)nc6C5)CN4[C@H](C)C3)ccc(C#N)c2n1 [Example 24]
- IC50 [1]: 5.9 nM
- IC50 [2]: 95.2 nM
- CL (h) [3]: 8.9 mL/min/kg
- IC50 [4]: 4.3 nM
